Results: patent US6919464B1, “Synthetic derivatives of 21-butenyl and related spinosyns” (Dow AgroSciences LLC, priority 2001, dated 2005)

System: Heliothis virescens
Test: Tobacco Budworm (Heliothis virescens) feeding assay, cotton leaf-dip
Type: in vivo
Settings: rate 600 ppm, second instar larvae, 96 h

CCCC[C@H]1CCC[C@H](OC2CC[C@H](N(C)C)[C@@H](C)O2)[C@@H](C)C(=O)C2=CC3C4C[C@H](O[C@@H]5O[C@@H](C)[C@H](OC)[C@@H](O)[C@H]5OC)CC4CCC3C2CC(=O)O1 (stereo partly shown) [Compound B12, 5,6,22,23-tetrahydro-for-(3′-O-desmethylrham)-I]
mortality at 600 ppm: 100%
